Columns and labels:
[1] = test system: Herpes simplex virus type 1; assay: HSV-1 Viral Suspension Assay; format: cell-based
Experimental: (§1) The Viral Suspension Assay was used to evaluate the antiviral properties of Alexidine against Herpes simplex virus type 1 when exposed in suspension for 1, 2, 5, and 10 minutes. The presence of virus (infectivity) was determined by monitoring the virus specific cytopathic effect (CPE) on an appropriate indicator cell line, rabbit kidney. Results are reported as Percent (%) Reduction in virus titer as compared to the corresponding virus control titer (Table 1). The titer of the virus controls were 7.5 log10 following the one minute exposure time; 7.0 log10 following the two minute exposure time; and 7.75 log10 following both the five and ten minute exposure times.

Cytomegalovirus = assay: Viral Suspension Assay, Cytomegalovirus; format: cell-based
Experimental: as §1, with “Adenovirus Type-4, Adenovirus Type-8 and Adenovirus Type-19 and Cytomegalovirus” for “Herpes simplex virus type 1”

Adenovirus Type-19 = assay: Viral Suspension Assay, Adenovirus Type-19; format: cell-based; conditions: for Percent Reduction (%) Adenovirus type 19: 1, 2, 5 and 10 minutes exposure
Experimental: as §1, with “Adenovirus Type-4, Adenovirus Type-8 and Adenovirus Type-19 and Cytomegalovirus” for “Herpes simplex virus type 1”

Adenovirus Type-8 = assay: Viral Suspension Assay, Adenovirus Type-8; format: cell-based
Experimental: as §1, with “Adenovirus Type-4, Adenovirus Type-8 and Adenovirus Type-19 and Cytomegalovirus” for “Herpes simplex virus type 1”

Adenovirus Type-4 = assay: Viral Suspension Assay, Adenovirus Type-4; format: cell-based
Experimental: as §1, with “Adenovirus Type-4, Adenovirus Type-8 and Adenovirus Type-19 and Cytomegalovirus” for “Herpes simplex virus type 1”

Acanthamoeba keratitis [2] = conditions: in combination with propamidine isothionate (Brolene), hexamidine (Desomodine), or neomycin; cited from earlier work
Acanthamoeba keratitis [3] = conditions: bilateral case, one treatment per eye; cited from earlier work
[4] = test system: experimental Aspergillus keratitis; conditions: 0.02%; cited from earlier work
[5] = Alexidine 30 ppm, 2 minutes exposure
[6] = Alexidine 30 ppm, 5 minutes exposure
[7] = Alexidine 30 ppm, 10 minutes exposure
[8] = Alexidine 99 ppm, 1 minute exposure
[9] = Alexidine 99 ppm, 2 minutes exposure
[10] = Alexidine 99 ppm, 5 minutes exposure
[11] = Alexidine 99 ppm, 10 minutes exposure
[12] = Alexidine 30 ppm, 1 minute exposure

CCCCC(CC)CNC(=N)NC(=N)NCCCCCCNC(=N)NC(=N)NCC(CC)CCCC (centres unmarked) [Alexidine, 1,1′-Hexamethylene-bis [5-(2-ethylhexyl)biguanide]]
antimicrobial potency against Herpes Simplex-1, summary in words [1]: potent antimicrobial agent | Percent Reduction of Herpes simplex virus type 1 ([1]; Alexidine 30 ppm, 1 minute exposure in suspension, vs virus control titer): 99.99% | Percent Reduction of Herpes simplex virus type 1 [1, 5]: 99.99% | Percent Reduction of Herpes simplex virus type 1 [1, 6]: 99.9994% | Percent Reduction of Herpes simplex virus type 1 [1, 7]: ≧100% | Percent Reduction of Herpes simplex virus type 1 [1, 8]: 99.999% | Percent Reduction of Herpes simplex virus type 1 [1, 9]: 99.994% | Percent Reduction of Herpes simplex virus type 1 [1, 10]: 99.9999% | Percent Reduction of Herpes simplex virus type 1 [1, 11]: ≧100% | effectiveness against herpes simplex type-1 virus (HSV-1), in words ([1]; at both 30 ppm and 99 ppm): effective agents | Percent Reduction (%) Cytomegalovirus (Cytomegalovirus; [12]): 43.8% | Percent Reduction (%) Cytomegalovirus (Cytomegalovirus; [5]): 68.4% | Percent Reduction (%) Cytomegalovirus (Cytomegalovirus; [7]): 43.8% | Percent Reduction (%) Cytomegalovirus (Cytomegalovirus; [8]): 98.2% | Percent Reduction (%) Cytomegalovirus (Cytomegalovirus; [9]): 99.0% | Percent Reduction (%) Cytomegalovirus (Cytomegalovirus; [10]): 99.8% | Percent Reduction (%) Cytomegalovirus (Cytomegalovirus; [11]): 99.98% | effectiveness against Cytomegalovirus, in words (Cytomegalovirus; at both 30 ppm and 99 ppm): somewhat effective | effectiveness against the tested strain of Adenovirus Type-19, in words (Adenovirus Type-19): did not appear to be effective | Percent Reduction (%) Adenovirus type 19 (Adenovirus Type-19; Alexidine 30 ppm): No reduction | Percent Reduction (%) Adenovirus type 19 (Adenovirus Type-19; Alexidine 99 ppm): No reduction | Percent Reduction (%) Adenovirus type 8 (Adenovirus Type-8; [12]): 96.8% | Percent Reduction (%) Adenovirus type 8 (Adenovirus Type-8; [5]): 94.4% | Percent Reduction (%) Adenovirus type 8 (Adenovirus Type-8; [6]): 82.2% | Percent Reduction (%) Adenovirus type 8 (Adenovirus Type-8; [7]): 90.0% | Percent Reduction (%) Adenovirus type 8 (Adenovirus Type-8; [8]): 82.2% | Percent Reduction (%) Adenovirus type 8 (Adenovirus Type-8; [9]): 82.2% | Percent Reduction (%) Adenovirus type 8 (Adenovirus Type-8; [10]): 90.0% | Percent Reduction (%) Adenovirus type 8 (Adenovirus Type-8; [11]): 90.0% | effectiveness against Adenovirus Type-8, in words (Adenovirus Type-8; at both 30 ppm and 99 ppm): somewhat effective | Percent Reduction (%) Adenovirus type 4 (Adenovirus Type-4; [12]): 43.8% | Percent Reduction (%) Adenovirus type 4 (Adenovirus Type-4; [6]): 82.2% | Percent Reduction (%) Adenovirus type 4 (Adenovirus Type-4; [7]): 68.4% | Percent Reduction (%) Adenovirus type 4 (Adenovirus Type-4; [8]): 68.4% | Percent Reduction (%) Adenovirus type 4 (Adenovirus Type-4; [10]): 43.8% | Percent Reduction (%) Adenovirus type 4 (Adenovirus Type-4; [11]): 68.4% | effectiveness against Adenovirus Type-4, in words (Adenovirus Type-4; at both 30 ppm and 99 ppm): somewhat effective

N=C(NCCCCCCNC(=N)NC(=N)Nc1ccc(Cl)cc1)NC(=N)Nc1ccc(Cl)cc1 [chlorhexidine gluconate, 1,1′-hexamethylene-bis[5-(p-chlorophenyl)biguanide]]
response of Acanthamoeba keratitis to treatment (Acanthamoeba keratitis [2]): respond well

poly(hexamethylene biguanide) [polyhexamethylene biguanide]
treatment of recurrences of Acanthamoeba keratitis (Acanthamoeba keratitis [3]): successfully treated | efficacy in experimental Aspergillus keratitis [4]: moderately effective | response of Acanthamoeba keratitis to treatment (Acanthamoeba keratitis [2]): respond well

From patent US20070141091A1, “BIGUANIDE OINTMENT AND METHOD OF TREATMENT AND PREVENTION OF INFECTIONS” (priority 2005, published 2007)
